{"source": "patent US20250186317A1", "about": "“SKIN CARE COMPOSITION COMPRISING LACTIC ACID, POLYHYDROXY ACID, AND ITS BUFFERING SALT” (The Procter & Gamble Company, priority 2023, published 2025)", "tested_on": "skin", "experiment": "Bakuchiol penetration to skin from low pH formulations", "conditions": "in low pH formulations compared to neutral/alkaline pH formulations"}
{"smiles": "C=C[C@@](C)(/C=C/c1ccc(O)cc1)CCC=C(C)C", "note": "[bakuchiol, Bakuchiol]", "values": [{"measurement": "Penetration to skin", "result": "improved penetration to skin"}]}
